Data taken from patent US8895568B2, “Compositions comprising substituted pteridines as agrochemicals” (Dow AgroSciences LLC, priority 2009, dated 2014).

Tests used:
Type in all cases: in vivo
[1] = system: Cochliobolus sativus; test: Spot Blotch of Wheat (COCHSA), foliar spray, percent disease control; conditions: Bipolaris sorokiniana, foliar; read-out: COCHSA percent control
[2] = system: Pseudoperonospora cubensis; test: Cucumber Downy Mildew (PSPECU), foliar spray, percent disease control; conditions: foliar, read-out: PSPECU percent control
[3] = system: DROSME, AEDSAE, LAPHEG, or HELIVI; test: Insecticidal activity, active if any of DROSME, AEDSAE, LAPHEG or HELIVI was controlled at 80% or more; conditions: read-out: >80% mortality on any insect species @ 4000 ppm
[4] = system: Colletotricum lagenarium; test: Cucumber Anthracnose (COLLLA), foliar spray, percent disease control; conditions: foliar

SMILES	pest or weed control at 200 µg/mL [1] [%]	pest or weed control at 200 µg/mL [2] [%]	pest or weed control at 4000 ppm [3] [%]	pest or weed control at 200 µg/mL [4] [%]
FC(F)(F)COc1cccc(Oc2ccc(CCNc3ncnc4nccnc34)cc2)n1 [Compound 11, Pteridin-4-yl-(2-{4-[6-(2,2,2-trifluoroethoxy)-pyridin-2-yloxy]-phenyl}-ethyl)-amine]	0 to 49	50 to 79	> 80	0 to 49
CCOc1cccc(Oc2ccc(CCNc3ncnc4nccnc34)cc2)n1 [Compound 12, {2-[4-(6-Ethoxypyridin-2-yloxy)-phenyl]-ethyl}-pteridin-4-yl-amine]	0 to 49	80 to 100	> 80	0 to 49
N#Cc1cccc(Oc2ccc(CCNc3ncnc4nccnc34)cc2)n1 [Compound 13]	0 to 49	80 to 100	> 80	0 to 49
N#Cc1ccc(Oc2ccc(CCNc3ncnc4nccnc34)cc2)nc1 [Compound 14]	0 to 49	80 to 100	> 80	0 to 49
c1cnc(Oc2ccc(CCNc3ncnc4nccnc34)cc2)nc1 [Compound 15]	0 to 49	80 to 100	> 80	0 to 49
FC(F)(F)COc1ccnc(Oc2ccc(CCNc3ncnc4nccnc34)cc2)n1 [Compound 25]	0 to 49	80 to 100	> 80	0 to 49
c1cnc(Oc2ccc(CCNc3ncnc4nccnc34)cc2)cn1 [Compound 28]	0 to 49	80 to 100	> 80	0 to 49
O=C(c1ccc(Oc2ccc(CCNc3ncnc4nccnc34)cc2)nc1)C1CC1 [Compound 30]	0 to 49	50 to 79	> 80	0 to 49
FC(F)(F)c1ccc(Oc2ccc(CCNc3ncnc4nccnc34)cc2)nn1 [Compound 34]	0 to 49	80 to 100	> 80	0 to 49
Ic1ccnc(Oc2ccc(CCNc3ncnc4nccnc34)cc2)c1 [Compound 36, N-(2-{4-[(4-iodopyridin-2-yl)oxy]phenyl}ethyl)pteridin-4-amine]	50 to 79	80 to 100	> 80	50 to 79
Cc1cccc(Oc2ccc(CCNc3ncnc4nccnc34)cc2)n1 [Compound 39]	0 to 49	80 to 100	> 80	0 to 49
Cc1ccc(Oc2ccc(CCNc3ncnc4nccnc34)cc2)nc1 [Compound 40]	0 to 49	80 to 100	> 80	50 to 79
Cc1cnc2ncnc(NCCc3ccc(Oc4ccc(C(F)(F)F)cn4)cc3)c2n1 [Compound 41]	0 to 49	80 to 100	> 80	50 to 79
Cc1ccnc(Oc2ccc(CCNc3ncnc4nccnc34)cc2)c1 [Compound 42]	0 to 49	80 to 100	> 80	80 to 100
Cc1cccnc1Oc1ccc(CCNc2ncnc3nccnc23)cc1 [Compound 43]	0 to 49	80 to 100	> 80	0 to 49
CC(F)(F)c1ccnc(Oc2ccc(CCNc3ncnc4nccnc34)cc2)c1 [Compound 44]	0 to 49	80 to 100	> 80	50 to 79
c1csc(Oc2ccc(CCNc3ncnc4nccnc34)cc2)n1 [Compound 48]	0 to 49	80 to 100	> 80	0 to 49
COc1cc(CCNc2ncnc3nccnc23)ccc1Oc1ccc(C(F)(F)F)cn1 [Compound 49]	50 to 79	80 to 100	> 80	50 to 79
COc1cc(CCNc2ncnc3nccnc23)ccc1Oc1ccc(C#N)cn1 [Compound 50]	0 to 49	80 to 100	> 80	0 to 49
COc1cc(CCNc2ncnc3nccnc23)ccc1Oc1cc(C(F)(F)F)ccn1 [Compound 51]	0 to 49	80 to 100	> 80	50 to 79
Cc1cnc2ncnc(NCCc3ccc(Oc4ccc(C#N)cn4)cc3)c2n1 [Compound 52]	0 to 49	80 to 100	> 80	0 to 49
Cc1cnc2ncnc(NCCc3ccc(Oc4ncc(C(F)(F)F)cc4F)cc3)c2n1 [Compound 53]	0 to 49	80 to 100	> 80	80 to 100
Fc1cc(C(F)(F)F)cnc1Oc1ccc(CCNc2ncnc3nccnc23)cc1 [Compound 54]	0 to 49	80 to 100	> 80	80 to 100
Cc1cnc2ncnc(NCCc3ccc(Oc4nccc(C(F)(F)F)n4)cc3)c2n1 [Compound 55]	0 to 49	80 to 100	> 80	50 to 79
c1ccc(-c2nnsc2Oc2ccc(CCNc3ncnc4nccnc34)cc2)cc1 [Compound 58]	0 to 49	50 to 79	> 80	0 to 49
Cc1nnsc1Oc1ccc(CCNc2ncnc3nccnc23)cc1 [Compound 59]	0 to 49	0 to 49	> 80	0 to 49
FC(F)(F)c1cccnc1Oc1ccc(CCNc2ncnc3nccnc23)cc1 [Compound 60]	0 to 49	80 to 100	> 80	50 to 79
Cc1cnc(Oc2ccc(CCNc3ncnc4nccnc34)cc2)s1 [Compound 66]	50 to 79	80 to 100	> 80	80 to 100
CC(Nc1ncnc2nccnc12)c1ccc(Oc2ccc(C(F)(F)F)cn2)cc1 (stereo not drawn) [Compound 67]	0 to 49	80 to 100	> 80	0 to 49
CC(Nc1ncnc2nccnc12)c1ccc(Oc2nccc(C(F)(F)F)n2)cc1 (stereo not drawn) [Compound 68]	0 to 49	80 to 100	> 80	0 to 49
